From patent US20060194819A1, “Activation specific inhibitors of nf-kb and method of treating inflammatory processes in cardio-vascular diseases” (PROCORDE GMBH, priority 2003, published 2006)

What was measured:
[1] = target: T1, IKK-complex (Homo sapiens, UniProt O14920+O15111+Q9Y6K9); experiment: Cellular IKK kinase assay: HeLa cells treated with compound, TNF alpha stimulation, IKK-complex immunoprecipitated with anti-NEMO-antibody, I kappaB peptide phosphorylation by alpha screen; format: cell-based; conditions: HeLa cells, compound 1 h, TNF alpha 20 ng/ml, alpha screen; read-out: IC50 for inhibition of IKK-activity (I kappaB peptide phosphorylation)
T1 construct: IKK-complex was immunoprecipitated with anti-NEMO-antibody; endogenous in cells; host or cells: HeLa
Procedure: Kinase Assay Protocol: HeLa cells were maintained in Dulbecco's modified Eagle's medium (Invitrogen) supplemented with 10% fetal bovine serum, 2 mM L-glutamine, penicillin (50 units/ml) and streptomycin (50 μg/ml). 24 h before treatment with different compounds HeLa cells were plated at a density of 5×10^6 per well in 100-mm cell culture dishes to 90% confluences.
The cells were incubated with different drugs at the concentration indicated for 1 h, washed twice with PBS and stimulated with 20 ng/ml TNF alpha (Roche). After 7 min the cells were washed twice with ice cold PBS followed by scraping and transferring into a 1.5 ml microcentrifuge tube. After centrifugation by 2000 rpm for 2 min by 4° C. the PBS supernatant was removed and 200 μl Lyse-buffer (10 mM Hepes, pH 7.9, 0.1% NP40, 10 mM, 300 mM Sucrose, 10 mM KCl, 15 mM MgCl2, 1 mM DTT, 0.5 mM PMSF and antipain, aprotinin, leupeptin each 0.75 μg/ml (Sigma) was added to the pellet. The resuspended pellet was incubated on ice for 5 min and centrifuged at 13000 g for 30 s. The supernatant, cytosolic extract, was added to 200 μl TNT-buffer (200 mM NaCl, 20 mM Tris/HCl pH 7.5, 1% Triton X-100). Unspecific binding was blocked by incubation with 3 μg of normal rabbit IgG (Sigma) and 6 mg resuspended and prewashed Protein A Sepharose CI-4B (Pharmacia Biotech) for 30 min by 4° C. followed by immunoprecipitation for 1.5 h at 4° C. with 2 μg of anti-NEMO-antibody (Santa Cruz Biotechnology) and 6 mg resuspented and prewashed Protein A Sepharose CI-4B (Parmacia Biotech). […] 6.6 μl of detection-buffer (20 mM Hepes pH 7.5, 100 mM NaCl, 1% Tween, 0.1 mM BSA, 50 μg/ml Protein A-Acceptor beads, 250 μg/ml Streptavidin-Donor beads (both Perkin-Elmer), 4 nM anti-phospho-IKB antibody (Santa Cruz Biotechnology) was dispensed to each well. After incubation for 1.5 h the plate was measured by alpha screen reader (Perkin Elmer). […]

[2] = Solubility in PBS; format: physicochemical

T1 sequence (O14920 whole entry): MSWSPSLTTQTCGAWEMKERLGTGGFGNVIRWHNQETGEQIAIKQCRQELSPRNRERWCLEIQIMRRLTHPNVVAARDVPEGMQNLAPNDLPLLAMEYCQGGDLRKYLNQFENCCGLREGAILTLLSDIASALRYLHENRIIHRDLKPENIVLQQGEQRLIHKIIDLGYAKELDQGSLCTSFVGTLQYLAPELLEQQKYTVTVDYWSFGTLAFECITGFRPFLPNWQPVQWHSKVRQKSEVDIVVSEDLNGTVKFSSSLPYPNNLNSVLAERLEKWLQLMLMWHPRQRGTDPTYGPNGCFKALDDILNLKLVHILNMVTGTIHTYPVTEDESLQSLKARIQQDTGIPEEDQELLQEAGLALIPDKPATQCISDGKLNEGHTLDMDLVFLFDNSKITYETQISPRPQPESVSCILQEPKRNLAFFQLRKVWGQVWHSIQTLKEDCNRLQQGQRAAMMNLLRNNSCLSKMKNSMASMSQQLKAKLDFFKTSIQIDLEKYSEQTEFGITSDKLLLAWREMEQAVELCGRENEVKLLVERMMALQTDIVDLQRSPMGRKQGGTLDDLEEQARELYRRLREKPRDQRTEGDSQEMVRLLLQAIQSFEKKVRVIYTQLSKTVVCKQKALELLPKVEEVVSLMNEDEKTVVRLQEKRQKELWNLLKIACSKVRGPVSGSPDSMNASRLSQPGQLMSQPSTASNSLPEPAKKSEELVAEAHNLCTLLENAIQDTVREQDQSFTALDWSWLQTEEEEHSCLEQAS
T1 sequence (O15111 whole entry): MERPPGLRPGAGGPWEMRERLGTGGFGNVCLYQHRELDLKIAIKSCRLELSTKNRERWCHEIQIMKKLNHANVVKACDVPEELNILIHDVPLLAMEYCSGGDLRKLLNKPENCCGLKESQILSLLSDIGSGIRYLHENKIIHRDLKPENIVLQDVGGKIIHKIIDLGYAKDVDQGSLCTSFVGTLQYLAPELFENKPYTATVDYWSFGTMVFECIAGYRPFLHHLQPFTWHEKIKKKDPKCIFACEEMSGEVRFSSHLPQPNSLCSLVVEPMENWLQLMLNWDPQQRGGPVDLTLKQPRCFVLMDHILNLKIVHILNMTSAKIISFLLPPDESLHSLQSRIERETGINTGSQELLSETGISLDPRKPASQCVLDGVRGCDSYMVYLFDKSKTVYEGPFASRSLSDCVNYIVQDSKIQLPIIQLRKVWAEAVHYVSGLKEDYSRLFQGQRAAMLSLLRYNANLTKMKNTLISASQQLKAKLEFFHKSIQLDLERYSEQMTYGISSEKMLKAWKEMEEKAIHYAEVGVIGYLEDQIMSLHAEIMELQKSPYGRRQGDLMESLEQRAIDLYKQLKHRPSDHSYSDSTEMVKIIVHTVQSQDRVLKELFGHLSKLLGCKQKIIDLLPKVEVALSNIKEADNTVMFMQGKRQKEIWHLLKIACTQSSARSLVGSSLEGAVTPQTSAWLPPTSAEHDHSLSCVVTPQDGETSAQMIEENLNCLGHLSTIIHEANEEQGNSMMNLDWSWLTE
T1 sequence (Q9Y6K9 whole entry): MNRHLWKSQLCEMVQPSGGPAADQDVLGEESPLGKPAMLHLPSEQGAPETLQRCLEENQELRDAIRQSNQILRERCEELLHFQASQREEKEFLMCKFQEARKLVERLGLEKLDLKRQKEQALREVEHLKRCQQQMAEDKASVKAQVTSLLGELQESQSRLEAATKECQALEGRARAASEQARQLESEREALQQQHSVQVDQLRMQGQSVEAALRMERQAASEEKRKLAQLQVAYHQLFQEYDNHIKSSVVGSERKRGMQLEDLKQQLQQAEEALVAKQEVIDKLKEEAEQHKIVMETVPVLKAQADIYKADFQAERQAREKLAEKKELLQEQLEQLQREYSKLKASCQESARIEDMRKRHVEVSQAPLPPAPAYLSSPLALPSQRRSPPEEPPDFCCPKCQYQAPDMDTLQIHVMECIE

With `CCC(=O)C1=C(C)N=c2s/c(=C/c3cc(C)c(OCc4ccccc4Cl)c(I)c3)c(=O)n2C1c1ccc2c(c1)OCO2` (centres unmarked) [Compound 41] the IC50 [1] was 10 to 100 µM and the “solubility in PBS” value [2] was “only partly soluble”.
